Earlier results in US20170216439A1, “OTIC FORMULATIONS FOR THE TREATMENT OF CERUMINOSIS” (Otonomy, Inc., priority 2014, published 2017).

Assays:
[1] = for efficacy against tinnitus: in vivo
bacterial lesions = conditions: wild-type C57BL/6 and mutant flake mice

For CCN(CC)CC(=O)Nc1c(C)cccc1C [Lidocaine], the “reduces or eliminates the noise associated with tinnitus, share of sufferers” value ([1]; administered by IV) is given as 60-80%.

In the case of CNCCC=C1c2ccccc2CCc2ccccc21 [nortriptyline], the efficacy against tinnitus [1] is listed as “demonstrated efficacy”.

For CCCCCCCC/C=C\CCCCCCCC(=O)O [oleic acid], the “inhibitory against S. aureus” value (S. aureus) is listed as “inhibitory” and the “inhibitory against S. pyogenes” value (S. pyogenes) is listed as “inhibitory”.

For CCCCCC/C=C\CCCCCCCC(=O)O [palmitoleate], the “size of bacterial lesions” value (bacterial lesions) is listed as “decrease the size of bacterial lesions”.

In the case of CCCCCC/C=C\CCCCCCCC(=O)O [palmitoleic acid], the “inhibitory against S. aureus” value (S. aureus) is listed as “inhibitory” and the “inhibitory against S. pyogenes” value (S. pyogenes) is listed as “inhibitory”.

For Fc1ccc([C@@H]2CCNC[C@H]2COc2ccc3c(c2)OCO3)cc1 [paroxetine], the efficacy against tinnitus [1] is listed as “demonstrated efficacy”.

In the case of CN[C@H]1CC[C@@H](c2ccc(Cl)c(Cl)c2)c2ccccc21 [sertraline], the efficacy against tinnitus [1] is listed as “demonstrated efficacy”.
